Ends that are not written are not given here.
How the values were obtained:
[1] = target: T1, Munc18-1 (Rattus norvegicus, UniProt P61765); assay: ITC of Mint peptides and Sx1a binding to Munc18-1
T1 construct: His (C); made in house; host or cells: Escherichia coli Rosetta BL21 (DE3)
Experimental: For ITC, all peptides were weighed and initially dissolved in the working buffer to make a stock concentration of 2 mM. […] The binding parameters, equilibrium constant Ka (1/Kd), stoichiometry (n), and the enthalpy (ΔH) were determined by processing the ITC data using ORIGIN 7.0 software. The equation, ΔG = ΔH – TΔS, was used to calculate the Gibbs free energy (ΔG), and all the experiments were performed in triplicate or duplicate to calculate the SEM for thermodynamic parameters.

[2] = target: Munc18-1^Δ317–333 + Mint1; assay: ITC of Sx1a binding to Munc18-1 hinge-loop deletion mutant in the presence of Mint1 (261–282) peptide; design: species or system rat; conditions: Table 2; syringe Sx1a + Mint1, cell Munc18-1^Δ317–333 + Mint1; ITC 25 °C
Excerpt: As Mint1 binds to Munc18-1 domain 3b, we hypothesized that the perturbed Mint1 interaction on deletion of the distal domain 3a hinge-loop might be due to altered structural dynamics in the combined domain3a/3b module. […] This is in line with the ability to cocrystallize the three proteins when excess Mint1 peptide is present ([47]). […] This has potential implications for a role of Mint proteins in Munc18-1-mediated SNARE assembly, which is a tightly regulated and highly dynamic process.
For ITC, all peptides were weighed and initially dissolved in the working buffer to make a stock concentration of 2 mM. […] GST-Mint1 and all the other proteins used in the experiments were buffer exchanged into 50 mM Tris (pH 8.0) and 200 mM NaCl by gel filtration prior to ITC. […] Mint1 PTB domain binding to the APP and TJAP1 peptides was performed in 50 mM Hepes, 200 mM NaCl, 0.5 mM TCEP, and 5% glycerol at 25 °C with 1 mM peptides titrated into 50 μM Mint1 PTB domain. The binding parameters, equilibrium constant Ka (1/Kd), stoichiometry (n), and the enthalpy (ΔH) were determined by processing the ITC data using ORIGIN 7.0 software. The equation, ΔG = ΔH – TΔS, was used to calculate the Gibbs free energy (ΔG), and all the experiments were performed in triplicate or duplicate to calculate the SEM for thermodynamic parameters.

T1 sequence (P61765 whole entry): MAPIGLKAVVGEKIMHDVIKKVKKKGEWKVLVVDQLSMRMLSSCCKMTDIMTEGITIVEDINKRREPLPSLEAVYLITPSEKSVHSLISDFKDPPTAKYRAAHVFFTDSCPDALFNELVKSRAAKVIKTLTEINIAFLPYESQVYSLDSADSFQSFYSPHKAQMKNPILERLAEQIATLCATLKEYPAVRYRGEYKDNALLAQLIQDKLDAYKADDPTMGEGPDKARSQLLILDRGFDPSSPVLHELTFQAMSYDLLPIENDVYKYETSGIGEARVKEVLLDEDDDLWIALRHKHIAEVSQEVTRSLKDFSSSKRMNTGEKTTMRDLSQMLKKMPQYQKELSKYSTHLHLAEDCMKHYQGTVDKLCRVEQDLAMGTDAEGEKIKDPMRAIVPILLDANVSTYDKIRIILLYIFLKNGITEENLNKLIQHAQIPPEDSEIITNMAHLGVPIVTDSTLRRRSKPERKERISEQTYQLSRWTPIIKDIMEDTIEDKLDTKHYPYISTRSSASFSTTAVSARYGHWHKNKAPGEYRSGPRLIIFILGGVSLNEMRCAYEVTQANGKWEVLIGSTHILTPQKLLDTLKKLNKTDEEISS

## LEDQEEDIDQIVAEIKMELEMEEI [Mint2_2]
[1]
  Kd: 200 µM

## MDSYEQEEDIDQIVAAVKQSMS [Mint1_14]
[1]
  Kd: 216 µM

## Sx1a: recombinant rat Syntaxin1a (Sx1_1–261-His) expressed in E. coli
[2]
  Kd: 0.09 µM

Source: publication PMC10820826, “Interrogation and validation of the interactome of neuronal Munc18-interacting Mint proteins with AlphaFold2” (The Journal of Biological Chemistry, 2023)
